Data from patent US11345711B2, “8,9-dihydroimidazo[1,2-a]pyrimido[5,4-e]pyrimidin-5(6H)-ones” (IMPACT THERAPEUTICS (SHANGHAI), INC, priority 2016, dated 2022).
pIC50: −log10 of the molar value. Where two headings read alike, the source gives them in different places.

How the values were obtained:
LoVo cells = assay: MTT based cell viability assay on LoVo cells; conditions: Homo sapiens, LoVo, 72 h, 3 d, read-out: IC50, growth inhibition of LoVo cells
How it was run: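 Inhibition of LoVo proliferation was derived as IC50 from a sigmoidal dose-response fit of cell survival. Readout was MTT (0.5 mg/mL, 4 h) with absorbance at 552/630/690 nm, after 3-day treatment at 37 °C. Eight-point series from 10 μM to 0.01 μM, DMSO control, 1% DMSO final.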

Wee1 (h) = Wee1 (h) (Homo sapiens, UniProt P30291); assay: Wee1 kinase (h) detection method, [γ-33P]-ATP filter assay; assay type: biochemical
NCI-H1299 cells = assay: MTT based cell viability assay on NCI-H1299 cells; conditions: Homo sapiens, read-out: IC50, growth inhibition of NCI-H1299 cells
How it was run: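 Viability read-out was MTT reduction (0.5 mg/mL, 4 h, absorbance 552/630/690 nm) after 3-day compound exposure at 37 °C of NCI-H1299 cells seeded at 1000 per well. Dilutions spanned 10 μM–0.01 μM in DMSO, final DMSO 1‰. Survival-versus-concentration curves were fitted sigmoidally to give IC50.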

Sequence of Wee1 (h) (P30291 whole entry): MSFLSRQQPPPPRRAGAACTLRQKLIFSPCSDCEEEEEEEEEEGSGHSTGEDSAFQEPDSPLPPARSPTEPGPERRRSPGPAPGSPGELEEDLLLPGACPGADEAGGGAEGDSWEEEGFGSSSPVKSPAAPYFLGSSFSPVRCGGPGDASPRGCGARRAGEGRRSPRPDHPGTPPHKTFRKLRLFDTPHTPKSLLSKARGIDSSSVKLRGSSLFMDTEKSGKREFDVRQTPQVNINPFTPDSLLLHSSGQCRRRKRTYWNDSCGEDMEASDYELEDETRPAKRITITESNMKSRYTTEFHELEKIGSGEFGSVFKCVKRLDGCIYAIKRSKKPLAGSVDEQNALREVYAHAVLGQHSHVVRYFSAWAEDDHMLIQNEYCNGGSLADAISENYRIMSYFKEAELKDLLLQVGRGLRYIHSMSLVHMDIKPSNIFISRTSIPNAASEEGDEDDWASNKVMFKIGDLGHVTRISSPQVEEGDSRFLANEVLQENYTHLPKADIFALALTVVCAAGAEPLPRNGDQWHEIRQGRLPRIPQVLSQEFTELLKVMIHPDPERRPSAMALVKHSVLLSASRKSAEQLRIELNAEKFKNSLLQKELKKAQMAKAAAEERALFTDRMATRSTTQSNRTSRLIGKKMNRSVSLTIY

Compound	pIC50 (LoVo cells)	Inh. (%) of Wee1 kinase enzyme activity (Wee1 (h); C 1 μm compound)	pIC50 (NCI-H1299 cells; NCI-H1299 cells)	Inh. (%) of Wee1 kinase enzyme activity (Wee1 (h); C 0.01 μm compound)	Inh. (%) of Wee1 kinase enzyme activity (Wee1 (h); C 0.1 μm compound)	pIC50 (NCI-H1299 cells; NCI-H1299, NCI-H1299 cells)
COc1cc(Nc2ncc3c(n2)N2CCN=C2N(c2c(Cl)cccc2Cl)C3=O)cc(Br)c1N1CCN(C)CC1 [Example 157, 6-(2,6-Dichlorophenyl)-2-((3-bromo-5-methoxy-4-(4-methylpiperazin-1-yl)phenyl)amino)-8,9-dihydroimidazo[1,2-a]pyrimido[5,4-e]pyrimidin-5(6H)-one]	7.41	91%	6.65			
Cc1cc(Nc2ncc3c(n2)N2CCN=C2N(c2c(Cl)cccc2Cl)C3=O)cc(C)c1N1CCN(C)CC1 [Example 158, 6-(2,6-Dichlorophenyl)-2-((3,5-dimethyl-4-(4-methylpiperazin-1-yl)phenyl)amino)-8,9-dihydroimidazo[1,2-a]pyrimido[5,4-e]pyrimidin-5(6H)-one]	7.23	95%		27%	84%	6.98
Cc1cc(Nc2ncc3c(n2)N2CCN=C2N(c2c(Cl)cccc2Br)C3=O)cc(F)c1N1CCC(N(C)C)CC1 [Example 160, 6-(2-Bromo-6-chlorophenyl)-2-((4-(4-(dimethylamino)piperidin-1-yl)-3-fluoro-5-methylphenyl)amino)-8,9-dihydroimidazo[1,2-a]pyrimido[5,4-e]pyrimidin-5(6H)-one]	7.56	98%		31%	85%	7.20
CN1CCN(c2ccc(Nc3ncc4c(n3)N3CCN=C3N(c3c(Cl)cccc3Br)C4=O)cc2Cl)CC1 [Example 161, 6-(2-Bromo-6-chlorophenyl)-2-((3-chloro-4-(4-methylpiperazin-1-yl)phenyl)amino)-8,9-dihydroimidazo[1,2-a]pyrimido[5,4-e]pyrimidin-5(6H)-one]	7.03	97%	6.66	27%	72%	
CN1CCN(c2ccc(Nc3ncc4c(n3)N3CCN=C3N(c3c(Cl)cccc3Br)C4=O)cc2Br)CC1 [Example 162, 6-(2-Bromo-6-chlorophenyl)-2-((3-bromo-4-(4-methylpiperazin-1-yl)phenyl)amino)-8,9-dihydroimidazo[1,2-a]pyrimido[5,4-e]pyrimidin-5(6H)-one]	7.19	98%	6.68	22%	86%	
Cc1cc(Nc2ncc3c(n2)N2CCN=C2N(c2c(Cl)cccc2Br)C3=O)ccc1N1CCN(C)CC1 [Example 163, 6-(2-Bromo-6-chlorophenyl)-2-((3-methyl-4-(4-methylpiperazin-1-yl)phenyl)amino)-8,9-dihydroimidazo[1,2-a]pyrimido[5,4-e]pyrimidin-5(6H)-one]	7.20	99%	7.01	25%	87%	
CN1CCN(c2c(Cl)cc(Nc3ncc4c(n3)N3CCN=C3N(c3c(Cl)cccc3Br)C4=O)cc2Cl)CC1 [Example 164, 6-(2-Bromo-6-chlorophenyl)-2-((3,5-dichloro-4-(4-methylpiperazin-1-yl)phenyl)amino)-8,9-dihydroimidazo[1,2-a]pyrimido[5,4-e]pyrimidin-5(6H)-one]	7.00	97%		17%	68%	6.80
Cc1cc(Nc2ncc3c(n2)N2CCN=C2N(c2c(Cl)cccc2Br)C3=O)cc(F)c1N1CCN(C)CC1 [Example 165, 6-(2-Bromo-6-chlorophenyl)-2-((3-fluoro-5-methyl-4-(4-methylpiperazin-1-yl)phenyl)amino)-8,9-dihydroimidazo[1,2-a]pyrimido[5,4-e]pyrimidin-5(6H)-one]	7.62	92%				7.01
Cc1cc(Nc2ncc3c(n2)N2CCN=C2N(c2c(Cl)cccc2Br)C3=O)cc(Cl)c1N1CCN(C)CC1 [Example 166, 6-(2-Bromo-6-chlorophenyl)-2-((3-chloro-5-methyl-4-(4-methylpiperazin-1-yl)phenyl)amino)-8,9-dihydroimidazo[1,2-a]pyrimido[5,4-e]pyrimidin-5(6H)-one]	7.26	98%		28%	86%	7.00
Cc1cc(Nc2ncc3c(n2)N2CCN=C2N(c2c(Cl)cccc2Br)C3=O)cc(Br)c1N1CCN(C)CC1 [Example 167, 6-(2-Bromo-6-chlorophenyl)-2-((3-bromo-5-methyl-4-(4-methylpiperazin-1-yl)phenyl)amino)-8,9-dihydroimidazo[1,2-a]pyrimido[5,4-e]pyrimidin-5(6H)-one]	7.20	98%		21%	82%	6.97
Cc1cccc(F)c1N1C(=O)c2cnc(Nc3ccc(N4CCN(C)CC4)c(Cl)c3)nc2N2CCN=C21 [Example 168, 6-(2-Fluoro-6-methylphenyl)-2-((3-chloro-4-(4-methylpiperazin-1-yl)phenyl)amino)-8,9-dihydroimidazo[1,2-a]pyrimido[5,4-e]pyrimidin-5(6H)-one]	6.53	89%	6.22			
Cc1cc(Nc2ncc3c(n2)N2CCN=C2N(c2c(C)cccc2F)C3=O)cc(C)c1N1CCN(C)CC1 [Example 169, 6-(2-Fluoro-6-methylphenyl)-2-((3,5-dimethyl-4-(4-methylpiperazin-1-yl)phenyl)amino)-8,9-dihydroimidazo[1,2-a]pyrimido[5,4-e]pyrimidin-5(6H)-one]	6.78	93%		16%	73%	6.56
Cc1cccc(Cl)c1N1C(=O)c2cnc(Nc3ccc(N4CCN(C)CC4)c(Cl)c3)nc2N2CCN=C21 [Example 171, 6-(2-Chloro-6-methylphenyl)-2-((3-chloro-4-(4-methylpiperazin-1-yl)phenyl)amino)-8,9-dihydroimidazo[1,2-a]pyrimido[5,4-e]pyrimidin-5(6H)-one]	6.64	95%		16%	59%	6.35
Cc1cccc(Cl)c1N1C(=O)c2cnc(Nc3cc(Cl)c(N4CCN(C)CC4)c(Cl)c3)nc2N2CCN=C21 [Example 172, 6-(2-Chloro-6-methylphenyl)-2-((3,5-dichloro-4-(4-methylpiperazin-1-yl)phenyl)amino)-8,9-dihydroimidazo[1,2-a]pyrimido[5,4-e]pyrimidin-5(6H)-one]	6.93	91%		12%	60%	6.44
